Measurements from PMC3759356 (Cancer cell, 2013).

Molecular target: T1, BARD1 (Homo sapiens, UniProt Q99728)
T1 sequence (Q99728 568-777 limits assumed): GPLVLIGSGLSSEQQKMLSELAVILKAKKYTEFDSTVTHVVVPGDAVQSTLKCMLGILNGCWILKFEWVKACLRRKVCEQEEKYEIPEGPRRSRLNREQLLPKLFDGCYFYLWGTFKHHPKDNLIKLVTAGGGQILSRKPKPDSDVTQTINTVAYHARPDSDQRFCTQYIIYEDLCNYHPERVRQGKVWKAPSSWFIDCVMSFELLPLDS
Test: ITC
Format: binding

Nc1ncnc2c1ncn2[C@@H]1O[C@H](COP(=O)(O)OP(=O)(O)OC[C@H]2OC(O)[C@H](O)[C@@H]2O)[C@@H](O)[C@H]1O (stereo partly shown) [ADP-ribose]
Kd: ~250 nM
